Experiment [1] concerns the target recombinant human SYK360-635 (Spleen Tyrosine Kinase) (Homo sapiens (Human), UniProt P43405). Briefly: SYK kinase assay (33P ATP incorporation into biotinylated peptide). Conditions: purified truncated SYK aa 360-635, 20 μM ATP; read-out: Syk_IC50. The format is biochemical. As to the method: Determination of IC50 of Spleen Tyrosine Kinase (SYK) Inhibition:
SYK kinase assay is a standard kinase assay adapted to a 96 well plate format. This assay is performed in 96-well format for IC50 determination with […] which represented 10 half log dilutions and a 40 μL reaction volume. The assay measures the incorporation of radiolabeled ^33P γATP into an N-terminally biotinylated peptide substrate, derived from naturally occurring phosphoacceptor consensus sequence (Biotin-11aa DY*E). Phosphorylated products were detected upon termination of reactions with EDTA and the addition of Streptavidin coated beads.
final concentration: 50 mM HEPES pH7.5
BSA: Bovine Serum Albumin Fraction V, fatty acid free (Roche Diagnostics GmbH, Cat. No. 9100221) diluted to a final concentration of 0.1%
Assay Dilution Buffer (ADB): 50 mM HEPES, 0.1 mM EGTA, 0.1 mM Na Vanadate, 0.1 mM β-glycerophosphate, 10 mM MgCl2, 1 mM DTT, 0.1% BSA, pH 7.5
Bead wash buffer: 10 g/L PBS (Phosphate buffered saline) with 2M NaCl+1% phosphoric acid.
DMSO and the mixture was incubated for 10 min at RT.
The kinase reaction was initiated by the addition of 10 μL 4× substrate cocktail containing the DYE peptide substrate [0 or 5 μM], ATP [20 μM] and ^33PγATP [2 μCi/rxn]. After incubation at 30° C. for 15 min, the reaction was terminated by the transfer of […] pf the reaction sample to a 96 well 0.65 μm Millipore MADVNOB membrane/plate containing 200 μL 5 mM EDTA and 20% Streptavidine coated beads in PBS.
The unbound radionucleotides were washed under vacuum with 3×250 μL 2M NaCl; 2×250 μL 2M NaCl+1% phosphoric acid; 1×250 μL H2O. After the last wash membrane/plates were transferred to an adaptor plate, heat dried for 15 min at 60° C., and 50 μL scintillation cocktail was added to each well and 4 h later the amount of radioactivity was counted in a top counter.

The subject of experiment [2] is CD69 up-regulation on B-cell lymphocytes (CD20+) stimulated with anti-human IgM. Briefly: B Cell CD69 Up-Regulation Assay in Human Whole Blood. The format is cell-based. Conditions: read-out: Human whole blood IC50. As to the method:
B Cell CD69 Up-Regulation Assay in Human Whole Blood
Human Blood was collected from healthy volunteers into Vacutainers (BD Biosciences, San Jose, Calif.) containing sodium heparin. Test compound was suspended in DMSO and nine half-log serial dilutions were made. The concentration of […] in the assay was 0.5%. 100 μL whole blood was pre-incubated with compound for 30 min and then stimulated with goat F(ab′)2 anti-human IgM (50 μg/mL, Southern Biotech) for 20 h. At the end of the 20 hour incubation, samples were incubated with fluorochrome-conjugated antibodies, PE mouse anti-human CD20 and APC Mouse anti-human CD69 (BD Biosciences), for 30 minutes. Samples were then lysed with Lyse solution (BD) and washed with PBS containing 2% fetal bovine serum (FBS). Fluorescent signals were acquired on flow cytometer LSR II (BD) and data were analyzed by Flow Jo. The percentage of activated (CD69hi) B-cell lymphocytes (CD20+) were determined using un-stimulated (negative control) and stimulated (positive control) wells as reference guidelines. The percentage inhibition was calculated and an IC50 curve was constructed using GraphPad Prism software with sigmoidal curve fitting.

Setting [3] is: human whole blood, anti-IgM stimulation 20 h, CD69hi CD20+ B cells.

Structures are written as SMILES. Like-named read-outs stand apart in the source and are kept apart here.

With `Cc1cccc(Nc2cc(Oc3ccccc3)nnc2C(N)=O)n1` [Compound I-1, 4-(6-methylpyridin-2-ylamino)-6-phenoxypyridazine-3-carboxamide], the IC50 in experiment [1] came out at 1320 nM.
The same measure, in the same setting: the result for `Cc1cccc(Nc2cc(Oc3cccc(C#N)c3)nnc2C(N)=O)n1` [Compound I-2, 6-(3-cyanophenoxy)-4-(6-methylpyridin-2-ylamino)pyridazine-3-carboxamide] reads 965 nM; that for `Cc1cccc(Nc2cc(Oc3cccc(C(C)(C)N)c3)nnc2C(N)=O)n1` [Compound I-3, 6-(3-(2-aminopropan-2-yl)phenoxy)-4-(6-methylpyridin-2-ylamino)pyridazine-3-carboxamide], 2240 nM; that for `Cc1cccc(Nc2cc(Oc3cccnc3)nnc2C(N)=O)n1` [Compound I-5, 4-(6-methylpyridin-2-ylamino)-6-(pyridin-3-yloxy)pyridazine-3-carboxamide], 1500 nM.
The same measure, in the same setting: the result for `Cc1cccc(Nc2cc(Oc3ccccc3C#N)nnc2C(N)=O)n1` [Compound I-6, 6-(2-cyanophenoxy)-4-(6-methylpyridin-2-ylamino)pyridazine-3-carboxamide] reads 385 nM; that for `CCc1ccccc1Oc1cc(Nc2cccc(C)n2)c(C(N)=O)nn1` [Compound I-7, 6-(2-ethylphenoxy)-4-(6-methylpyridin-2-ylamino)pyridazine-3-carboxamide], 473 nM.
Regarding `Cc1cccc(Nc2cc(Oc3ccccc3C)nnc2C(N)=O)n1` [Compound I-8, 4-(6-methylpyridin-2-ylamino)-6-(o-tolyloxy)pyridazine-3-carboxamide], the IC50 was 373 nM in experiment [1] and greater than 5000 nM in experiment [2] (Homo sapiens, 20 h).
`Cc1cccc(Nc2cc(Oc3ccc(Cl)cc3C#N)nnc2C(N)=O)n1` [Compound I-9, 6-(4-chloro-2-cyanophenoxy)-4-(6-methylpyridin-2-ylamino)pyridazine-3-carboxamide]: the IC50 in experiment [1] is 1410 nM.
Still for that read-out and setting: the result for `Cc1cccc(Nc2cc(Oc3ccccc3C3CC3)nnc2C(N)=O)n1` [Compound I-10, 6-(2-cyclopropylphenoxy)-4-(6-methylpyridin-2-ylamino)pyridazine-3-carboxamide] reads 2180 nM.
Consider `NC(=O)c1n[nH]c(=O)cc1Nc1cccc(C2CC2)n1` [Compound I-11, 4-(6-cyclopropyl-pyridin-2-ylamino)-6-oxo-1,6-dihydro-pyridazine-3-carboxylic acid amide], for which the IC50 in experiment [1] is 225 nM; in experiment [2] (setting [3]), greater than 5000 nM.
For the molecule `Cc1ccc(Nc2cc(OCCN)nnc2C(N)=O)nc1C` [Compound I-13, 6-(2-aminoethoxy)-4-(5,6-dimethylpyridin-2-ylamino)pyridazine-3-carboxamide], the IC50 in experiment [2] (setting [3]) is greater than 50000 nM.
Turning to `Cc1cc(C)cc(Nc2cc(Cl)nnc2C(N)=O)c1` [Compound I-14, 6-chloro-4-(3,5-dimethylphenylamino)pyridazine-3-carboxamide], the IC50 in experiment [1] was 124 nM; in experiment [2] (setting [3]) it was greater than 50000 nM.
The corresponding values for `Cc1ccc(Nc2cc(NC(CN)CC(C)C)nnc2C(N)=O)nc1C(C)C` (stereo not shown) [Compound I-15, 6-(1-aminomethyl-3-methyl-butylamino)-4-(6-isopropyl-5-methyl-pyridin-2-ylamino)-pyridazine-3-carboxylic acid amide] are 2 nM and 931 nM.
For the molecule `CC(C)(C)c1cccc(Nc2cc(NCCN)nnc2C(N)=O)n1` [Compound I-16, 6-(2-aminoethylamino)-4-(6-tert-butylpyridin-2-ylamino)pyridazine-3-carboxamide], the IC50 in experiment [1] turned out to be 13 nM; in experiment [2] (setting [3]) it was 603 nM.
The corresponding values for `CC(C)(C)c1cccc(Nc2cc(NCC3(N)CC3)nnc2C(N)=O)n1` [Compound I-19, 6-((1-aminocyclopropyl)methylamino)-4-(6-tert-butylpyridin-2-ylamino)pyridazine-3-carboxamide] are 135 nM and 6020 nM.
`CC(C)(C#N)c1cccc(Nc2cc(NCCN)nnc2C(N)=O)n1` [Compound I-21, 6-(2-aminoethylamino)-4-(6-(2-cyanopropan-2-yl)pyridin-2-ylamino)pyridazine-3-carboxamide]: the IC50 in experiment [2] (setting [3]) worked out at 573 nM.
In the case of `Cc1cccc(Nc2nc(CCCN)ncc2C(N)=O)c1` [Compound I-22, 2-(3-amino-propyl)-4-m-tolylamino-pyrimidine-5-carboxylic acid amide], the IC50 in experiment [1] is 2540 nM; in experiment [2] (setting [3]), greater than 5000 nM.
As to `CC(C)(O)c1cccc(Nc2cc(NCCN)nnc2C(N)=O)n1` [Compound I-23, 6-(2-aminoethylamino)-4-(6-(2-hydroxypropan-2-yl)pyridin-2-ylamino)pyridazine-3-carboxamide], the IC50 in experiment [2] (setting [3]) was determined as 2060 nM.
On to `Cc1cc(C)nc(Nc2cc(NCCN)nnc2C(N)=O)n1` [Compound I-24, 6-(2-aminoethylamino)-4-(4,6-dimethylpyrimidin-2-ylamino)pyridazine-3-carboxamide], for which the IC50 was 3980 nM in experiment [1] and greater than 5000 nM in experiment [2] (setting [3]).
Consider `NCCNc1cc(Nc2cccc(C(F)(F)F)n2)c(C(N)=O)nn1` [Compound I-25, 6-(2-aminoethylamino)-4-(6-(trifluoromethyl)pyridin-2-ylamino)pyridazine-3-carboxamide], for which the IC50 in experiment [2] (setting [3]) was 52 nM.
Turning to `Cc1ccc(Nc2cc(NCCN)nnc2C(N)=O)nc1N(C)C` [Compound I-27, 6-(2-aminoethylamino)-4-(6-(dimethylamino)-5-methylpyridin-2-ylamino)pyridazine-3-carboxamide], the IC50 in experiment [2] (setting [3]) stood at 287 nM.
On the same count and under the same terms, the value for `CC(C)(C)c1nccc(Nc2cc(NCCN)nnc2C(N)=O)n1` [Compound I-28, 6-(2-aminoethylamino)-4-(2-tert-butylpyrimidin-4-ylamino)pyridazine-3-carboxamide] was 358 nM.
Take `COC(C)(C)c1cccc(Nc2cc(NCCN)nnc2C(N)=O)n1` [Compound I-29, 6-(2-aminoethylamino)-4-(6-(2-methoxypropan-2-yl)pyridin-2-ylamino)pyridazine-3-carboxamide]: the IC50 in experiment [2] (setting [3]) was found to be 1800 nM.
For the molecule `Cc1cccc(Nc2cc(N[C@@H]3CCCC[C@@H]3N)ccc2C(N)=O)n1` [Compound I-30, 4-((1R,2S)-2-amino-cyclohexylamino)-2-(6-methyl-pyridin-2-ylamino)-benzamide], the IC50 in experiment [1] stood at 41.8 nM; in experiment [2] (setting [3]), 548 nM.
The corresponding values for `COc1nc(Nc2cc(NCCN)nnc2C(N)=O)ccc1C(C)C` [Compound I-31, 6-(2-aminoethylamino)-4-(5-isopropyl-6-methoxypyridin-2-ylamino)pyridazine-3-carboxamide] are 9.25 nM and 1500 nM.
For `CC(C)Oc1cccc(Nc2cc(NCCN)nnc2C(N)=O)n1` [Compound I-33, 6-(2-aminoethylamino)-4-(6-isopropoxypyridin-2-ylamino)pyridazine-3-carboxamide] the same measures were 12.4 nM and 566 nM.
